Values of other authors, collected in patent US20150099002A1, “MEANS AND METHODS FOR ENHANCING WEIGHT GAIN IN POULTRY” (Nutrinia Ltd., priority 2007, published 2015).

Test system: Cobb male chicks
Settings: through drinking water or feed, high amounts, at least 21 days

Substance: insulin: insulin provided to chicks through drinking water or feed in WO 2005/115473
- weight gain compared to same feed without insulin: higher weight gain
